Patent US11141423B2, “Methods of screening compounds useful for treatment of a liver disease” (Icahn School of Medicine at Mount Sinai, priority 2010, dated 2021)

Key:
CB1R-AT1R heteromer [1] = target: T1, CB1R-AT1R heteromer (UniProt P30556+P47746); test: Ang II-mediated pERK in Neuro2A-AT1R cells; format: cell-based
T1 construct: Neuro2A cells expressing endogenous CB1R and recombinant AT1R; expressed in transfected cells; host or cells: Neuro2A stably expressing AT1R (CB1R endogenous)
Protocol: (§1) Generation of HEK293-Transfected Cells and Neuro2A Cell Line Stably Expressing AT1R. These cell lines were generated using standard procedure of transfection and antibiotic selection of expressing cells. Screening of positive cells was carried out by immunostaining of the receptors to evaluate the homogeneity of expression in the clones.
RNAi-mediated CB1R and βarrestin-2 downregulation.
Neuro2A cells expressing endogenous CB1R and recombinant AT1R were pretreated with vehicle or THL (2 μM) for 3 hours in serum free media and stimulated with vehicle (CTL=control) or with the receptor ligand (angiotensin II) for 3 minutes. […] ERK phosphorylation was assessed by Western blot using antibodies to pERK and ERK (n=3-5). […] The cells were processed for infrared detection of pERK.

profibrogenic genes = test: Profibrogenic gene expression in liver of CCl4 or vehicle treated mice; format: in vivo
DAGL = settings: cited from earlier work
[2] = test system: α-SMA, TGFβ, pro-collagen α III and pro-collagen α I; test: Ang II-mediated fibrogenic response in eHSC, real-time PCR; format: cell-based, rat; settings: eHSCs, 4 hours, mRNA normalized to GAPDH
Protocol: (§2) Reverse Transcription and Real-Time PCR. Total RNA was isolated from 3×10^8 HSCs using the TRIzol method (Invitrogen, Carlsbad, Calif., USA). RNA (1.0 μg) was reverse-transcribed in 20 μl of buffer containing 50 μM oligo(dT)20, 25 mM MgCl2, 0.1 M dithiothreitol, 40 U/μl RNaseOUT, and 200 U/μl SuperScript III RT for 50 min at 50° C. The reaction was stopped by incubating the samples at 85° C. for 5 min, and 40 μl of nuclease-free water was added. Real-time PCR was performed by using the Brilliant SYBR Green QPCR Master Mix. The PCR template source was either 30 ng of first-strand cDNA or purified DNA standard. Primer sequences used to amplify the desired cDNA are detailed in Table 2. Amplification was performed with a spectrofluorometric thermal cycler (Stratagene). After an initial denaturation step at 95° C. for 10 min, amplification was performed using 40 cycles of denaturation (95° C. for 30 s), annealing (56° C. for 1 min), and extension (72° C. for 1 min). To standardize mRNA levels, we amplified GAPDH, a housekeeping gene, as an internal control. […] For analysis of gene expression, after reverse transcription, the number of copies of mRNA for the indicated transcripts were determined by real-time PCR. Data were normalized to GAPDH mRNA and are expressed as the mean±SD (n=3 in quadruplicate).

[3] = test system: α-SMA, TGFβ, pro-collagen α III and pro-collagen α I; test: CGS21680-mediated fibrogenic response in eHSC, real-time PCR; format: cell-based, rat; settings: eHSCs, 6 hours, mRNA normalized to GAPDH
Protocol: as §2, with “quadruplicate). […]” for “quadruplicate).”

AT1R = target: T2, AT1R (Rattus norvegicus, UniProt P25095); test: Ang II-mediated pERK in control HSCs (cHSCs), Western blot; format: cell-based; settings: cHSCs from control rats; Ang II stimulation; THL pretreatment 10 or 30 minutes
T2 construct: a profibrogenic receptor, AT1R, which was also expressed in cHSCs; endogenous in cells; host or cells: primary hepatic stellate cells from control-diet Sprague-Dawley rats (cHSCs)
T2 sequence (P25095 1-359): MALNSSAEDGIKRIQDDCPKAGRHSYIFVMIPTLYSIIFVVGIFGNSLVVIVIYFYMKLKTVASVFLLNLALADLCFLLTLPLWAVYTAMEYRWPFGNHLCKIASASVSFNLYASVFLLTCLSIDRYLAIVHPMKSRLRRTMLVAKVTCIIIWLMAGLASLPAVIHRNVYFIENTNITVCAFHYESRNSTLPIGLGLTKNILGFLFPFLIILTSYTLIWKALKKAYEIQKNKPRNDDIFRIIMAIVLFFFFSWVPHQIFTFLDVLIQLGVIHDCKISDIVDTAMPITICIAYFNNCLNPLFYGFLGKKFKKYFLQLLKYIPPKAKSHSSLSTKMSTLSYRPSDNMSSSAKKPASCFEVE
Source text: HSCs from ethanol treated rats were generated in the laboratory of Dr. Natalia Nieto: Rats (300 g female Sprague-Dawley, N=10/group) were fed the control or ethanol Lieber-DeCarli diets for 8 months (Lieber and DeCarli, 1989). Animals received humane care according to the criteria outlined in the Guide for Care and Use of Laboratory Animals. Details regarding pathology of the liver of the control and alcohol fed rats are described in (Cubero and Nieto, 2008; Urtasun et al., 2009).
Isolation of Hepatic Stellate Cells: These were isolated as described before. (Friedman, S. L. Hepatic stellate cells: protean, multifunctional, and enigmatic cells of the liver. Physiol Rev 88, 125-72 (2008); Teixeira-Clerc, F. et al. CB1 cannabinoid receptor antagonism: a new strategy for the treatment of liver fibrosis. Nat Med 12, 671-6 (2006)).

CB1R-AT1R heteromer [4] = target: T3, CB1R-AT1R heteromer (Rattus norvegicus, UniProt P20272+P25095); test: Ang II-mediated pERK in activated HSCs (eHSCs), Western blot; format: cell-based; settings: eHSCs from ethanol treated rats; Ang II stimulation; THL pretreatment 10 or 30 minutes; pERK normalized to total ERK
T3 construct: endogenous in cells; host or cells: primary hepatic stellate cells from ethanol-fed Sprague-Dawley rats (eHSCs)
Source text: Animals received humane care according to the criteria outlined in the Guide for Care and Use of Laboratory Animals.
Isolation of Hepatic Stellate Cells: These were isolated as described before.

CB1R-AT1R heteromer [5] = target: T4, CB1R-AT1R heteromer (Homo sapiens, UniProt P21554+P30556); test: Ang II-mediated pERK in HEK293 transfected with AT1R and CB1R; format: cell-based
T4 construct: expressed in transfected cells; host or cells: HEK293
Protocol: FIG. 3A. […] ERK phosphorylation was assessed by Western blot using antibodies to pERK and ERK. Data represent mean±SEM (n=4).
as §1

T1 sequence (P47746 whole entry): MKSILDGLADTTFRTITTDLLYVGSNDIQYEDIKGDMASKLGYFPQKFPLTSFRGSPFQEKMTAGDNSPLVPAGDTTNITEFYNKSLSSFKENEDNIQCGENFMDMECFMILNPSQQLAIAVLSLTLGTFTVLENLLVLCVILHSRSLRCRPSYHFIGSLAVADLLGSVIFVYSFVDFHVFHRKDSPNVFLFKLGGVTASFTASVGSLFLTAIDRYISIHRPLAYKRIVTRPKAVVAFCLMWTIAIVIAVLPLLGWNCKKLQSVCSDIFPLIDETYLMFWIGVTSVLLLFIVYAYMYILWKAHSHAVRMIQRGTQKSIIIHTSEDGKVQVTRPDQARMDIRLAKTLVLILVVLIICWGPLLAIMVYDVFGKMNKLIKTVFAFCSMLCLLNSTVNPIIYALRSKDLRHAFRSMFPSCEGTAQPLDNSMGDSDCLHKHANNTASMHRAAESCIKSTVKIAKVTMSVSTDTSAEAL
T1 sequence (P30556 whole entry): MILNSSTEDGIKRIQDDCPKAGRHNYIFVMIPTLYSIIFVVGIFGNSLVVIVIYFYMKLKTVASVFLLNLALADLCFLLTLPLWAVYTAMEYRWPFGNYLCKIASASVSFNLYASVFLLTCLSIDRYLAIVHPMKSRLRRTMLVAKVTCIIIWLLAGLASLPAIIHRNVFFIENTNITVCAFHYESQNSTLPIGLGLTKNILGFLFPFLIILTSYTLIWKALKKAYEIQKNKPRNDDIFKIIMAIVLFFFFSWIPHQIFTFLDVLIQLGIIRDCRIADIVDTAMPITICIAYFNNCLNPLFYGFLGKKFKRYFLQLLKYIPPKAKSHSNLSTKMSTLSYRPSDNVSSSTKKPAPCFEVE
T4 sequence (P21554 whole entry): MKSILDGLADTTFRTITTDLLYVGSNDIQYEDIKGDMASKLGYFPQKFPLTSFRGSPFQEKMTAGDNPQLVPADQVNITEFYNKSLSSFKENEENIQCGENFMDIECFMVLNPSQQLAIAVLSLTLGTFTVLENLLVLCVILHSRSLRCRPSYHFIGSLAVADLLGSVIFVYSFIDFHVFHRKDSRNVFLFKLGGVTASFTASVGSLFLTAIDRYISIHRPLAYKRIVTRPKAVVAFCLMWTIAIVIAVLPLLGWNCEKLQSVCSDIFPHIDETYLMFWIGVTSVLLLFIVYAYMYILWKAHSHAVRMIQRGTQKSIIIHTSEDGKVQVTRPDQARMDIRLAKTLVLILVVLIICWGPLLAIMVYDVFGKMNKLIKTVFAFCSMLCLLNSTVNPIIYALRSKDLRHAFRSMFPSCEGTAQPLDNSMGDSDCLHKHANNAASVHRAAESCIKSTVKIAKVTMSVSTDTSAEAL
T4 sequence (P30556 whole entry): as the sequence (P30556 whole entry) above
T3 sequence (P20272 whole entry, one chain of several): as the sequence (P47746 whole entry) above, with D95E counted along it

Q: With CCCCC/C=C\C/C=C\C/C=C\C/C=C\CCCC(=O)OC(CO)CO [2-AG, 2-arachidonoyl glycerol] as the compound, how does the “Effect on THL-induced loss of Ang II-mediated signaling” value (CB1R-AT1R heteromer [1]) read?
A: Its value is “reversed”.

Q: And the “2-AG-mediated ERK1/2 phosphorylation” value (CB1R-AT1R heteromer [1]; THL pretreated Neuro2A-AT1, constant agonist concentration, increasing doses of 2-AG)?
A: The value was “concentration-dependent”.

Q: For CCNC(=O)[C@H]1O[C@@H](n2cnc3c(N)nc(NCCc4ccc(CCC(=O)O)cc4)nc32)[C@H](O)[C@@H]1O [CGS21680], which “Expression of profibrogenic genes in liver” value (profibrogenic genes; CCl4 treated mice, acute i.p. injection CGS21680 2 mg/kg, 6 hours) is on record?
A: The value was “further increased”.

Q: What about the “Expression of profibrogenic genes in liver” value (profibrogenic genes; non-fibrotic livers from vehicle-treated mice, CGS21680 2 mg/kg i.p.) of the same compound?
A: Its value is “did not elevate”.

Q: Which results are given for CCCCCCC(C)(C)c1cc(O)c2c(c1)OC(C)(C)[C@@H]1CC=C(CO)C[C@@H]21 [Hu210]?
A: Effect on AT1R signaling of a non-signaling concentration of CB1R agonist (CB1R-AT1R heteromer [1]): potentiates; Effect on THL-induced loss of Ang II-mediated signaling (CB1R-AT1R heteromer [1]): reversed

Q: For O=C(NCCCCCCNC(=O)ON=C1CCCCC1)ON=C1CCCCC1 [RHC80267, 1,6-bis-(cyclohexyloximino-carbonylamino)-hexane], which “Inhibition of DAGL versus other lipases” value (DAGL) is on record?
A: The value was “inhibit DAGL at concentrations lower than those required to inhibit other lipases”.

Q: What does the source list for Cc1c(C(=O)NN2CCCCC2)nn(-c2ccc(Cl)cc2Cl)c1-c1ccc(Cl)cc1 [SR141716]?
A: Effect on Ang II-mediated increase in expression of profibrogenic markers [2]: prevents; Effect on Ang II-mediated increase in expression of profibrogenic markers ([2]; listed as CB1R antagonist): completely blocked; Effect on CGS-mediated increase in expression of profibrogenic markers ([3]; listed as CB1R antagonist): completely blocked; Effect on CGS-mediated increase in expression of profibrogenic markers ([3]; listed as SR): prevents; Effect on Ang II-mediated ERK phosphorylation in cHSCs (AT1R): not

Q: What does the source list for CCCCCCCCCCC[C@@H](C[C@@H]1OC(=O)[C@H]1CCCCCC)OC(=O)[C@H](CC(C)C)NC=O [THL, tetrahydrolipstatin]?
A: Inhibition of DAGL versus other lipases (DAGL): inhibit DAGL at concentrations lower than those required to inhibit other lipases; ERK1/2 phosphorylation upon agonist stimulation of the associated receptor (CB1R-AT1R heteromer [1]; Neuro2A-AT1, THL 2 μM, 3 hours, serum free media, angiotensin II 3 minutes): marked decrease; Effect on Ang II-mediated signaling (blocking 2-AG production) (CB1R-AT1R heteromer [1]; Neuro2A-AT1R): loss; Effect on Ang II-mediated ERK phosphorylation in eHSCs (CB1R-AT1R heteromer [4]): decreased; Effect on Ang II-mediated signaling (pERK) (CB1R-AT1R heteromer [5]; HEK293 co-expressing CB1R and AT1R, 10 nM Ang II 3 minutes, SR 1 μM, THL 1 μM, 1 hour pre-treatment): marked decrease; Effect on Ang II-mediated ERK phosphorylation in cHSCs (AT1R): not

Q: What does the source list for “Ang II: Angiotensin II, an agonist of AT1R (DRVYIHPF)”?
A: pERK levels at concentrations of Ang II superior to 10 nM (CB1R-AT1R heteromer [1]): decrease; pERK levels on Ang II stimulation (CB1R-AT1R heteromer [1]): dose-dependent rapid and transient enhancement; Increase in pERK on Ang II stimulation (CB1R-AT1R heteromer [5]): greater increase

Q: For pertussis toxin, which “Effect on AT1R signaling (Ang II pERK), G protein coupling” value (CB1R-AT1R heteromer [1]; cells co-expressing CB1R and AT1R, PTX 15 nM, 16 hours, forskolin 1 μM, 30 min) is on record?
A: Its value is “markedly inhibited”.
